Reference: US20240287089A1, “Preparation and Uses of 7-Azaindenoisoquinolines” (Purdue Research Foundation, priority 0001, published 2024)
Where two headings read alike, the source gives them in different places.

Key:
[1] = test system: CA-46 cells; experiment: MTS single-dosage cell viability assay; assay type: cell-based; conditions: CA-46, 250 nM
Excerpt: (§1) Single-Dosage Cell Viability Assay in CA-46 and Raji Cells. CA-46 and Raji are both Myc-dependent and -overexpressing non-Hodgkin's lymphoma cell lines. Both cell lines overexpress Myc due to a translocation that inserts an IgH enhancer upstream to the Myc gene. Whereas CA-46's translocation eliminates the G-quadruplex-forming region in one allele, Raji's translocation preserves the G-quadruplex-forming regions in both alleles. Therefore, Raji would be more sensitive to G-quadruplex-mediated Myc inhibition than CA-46, which may be reflected in lower IC50 values for Raji than CA-46. To evaluate cell line selectivity, MTS single-dosage assays were conducted to compare the antiproliferative effects of 7-aza-8,9-methylenedioxyindenoisoquinolines on CA-46 and Raji cells at 250 nM drug concentration (FIG. 8). Average % viability values of CA-46 and Raji cells for each drug were presented in bar plots side-by-side.
(§2) MTS Cell Viability Single-dosage Assay. Drug solutions for the MTS single dosage assays were made from DMSO stocks by dilutions in 1×PBS. To set up treatments, drug solutions were plated in triplicates to a 96-well tissue culture plate and added with media containing CA46 or Raji 2000 cells/well. […] Cells were quantified the same way as in the IC50 assays. To obtain %-viability, A490 values were subtracted by blank, normalized to 100%-viability control, and averaged. […]

[2] = test system: Raji cells; experiment: MTS single-dosage cell viability assay; assay type: cell-based; conditions: 250 nM
Excerpt: as §1, §2

[3] = test system: RD-ES human sarcoma tumor cells; experiment: RD-ES xenograft in female NOD SCID mice; assay type: in vivo; conditions: 20 mg/kg IV
Method: (§3) Xenograft Studies. […] JQ1 was employed as a positive control.
Similar studies were performed after inoculation of female NOD SCID mice with RD-ES human sarcoma tumor cells (FIGS. 16-19). The tumors grew much more rapidly and treatment was started on day 8 after tumor inoculation, with measurements of body weights and tumor sizes being made on days 8, 12, 15, 19, and 22 after tumor inoculation. […] The average RD-ES tumor sizes were much larger than observed with MOLT-4 (2327±285 vs. 546±59 mm^3).

[4] = test system: RS4;11 human leukemia cells; experiment: RS4;11 xenograft in female NOD SCID mice; assay type: in vivo
Method: as §3
The compounds were also evaluated in an RS4;11 human leukemia xenograft model (FIGS. 20 and 21). Treatment was started 12 days after tumor inoculation, with drugs being administered on days 1-5 and 11-15 after the start of treatment. Animal weights and tumor volumes were determined at 12, 15, 19, 22, and 25 days after tumor inoculation.

[5] = mouse, 1 μM
Method: Analysis of Plasma Protein Binding and Stability in Human and Mouse Blood Plasma by Equilibrium Dialysis. Frozen plasma (stored at −80° C.) was thawed immediately in a 37° C. water bath. The working solutions of test compound and control compound were prepared in DMSO at 200 μM concentration, and the working solutions were spiked into plasma. The final concentration of compound was 1 μM. The final concentration of DMSO was 0.5%. Ketoconazole was used as positive control in the assay. The dialysis membranes were soaked in ultrapure water for 60 min to separate strips, then in 20% ethanol for 20 min, and then finally in dialysis buffer for 20 min. For equilibrium dialysis, each cell contained plasma sample (150 μL) and was dialyzed against an equal volume of dialysis buffer (PBS). The assay was performed in duplicate. The dialysis plate was sealed and incubated at 37° C. with 5% CO2 at 100 rpm for 6 h. At the end of incubation, samples (50 μL) from both buffer and plasma chambers were transferred to wells of a 96-well plate. Plasma (50 μL) was added to each buffer sample and an equal volume of PBS was added to the collected plasma sample. […] The concentrations of test compounds in the buffer and plasma chambers were determined from peak area ratios.

[6] = in vivo, iv, 20 mg/kg
Method: (§4) Brain Penetration Studies. […] The concentrations were determined by LC-MS/MS with direct measurement of the plasma samples. The brain tissue was homogenized with water using a 3:1 ratio of water (mL) to brain (g) before determination of the concentrations (ng/mL) in the brain homogenates, and the homogenate values then were multiplied by a factor of 4 to obtain the brain concentrations (ng/g).

[7] = Pharmacokinetics IV and PO in male CD1 mice
[8] = test system: HCT-116 (Colon); conditions: Colon HCT-116; reference 20; read-out: Cytotoxicity GI50; cited from earlier work
[9] = test system: SF-539 (CNS); conditions: CNS SF-539; reference 20; read-out: Cytotoxicity GI50; cited from earlier work
[10] = test system: UACC-62 (Melanoma); conditions: Melanoma UACC-62; reference 20; read-out: Cytotoxicity GI50; cited from earlier work
[11] = test system: OVCAR-3 (Ovarian); conditions: Ovarian OVCAR-3; reference 20; read-out: Cytotoxicity GI50; cited from earlier work
[12] = test system: MCF7 (Breast); conditions: reference 20, read-out: Cytotoxicity GI50; cited from earlier work
[13] = test system: NCI-60 cancer cell lines; conditions: NCI-60 panel; reference 20; read-out: MGM (average GI50 across NCI-60 panel); cited from earlier work
[14] = Brain penetration and plasma/brain pharmacokinetics in CD1 mice; conditions: for Brain Conc / Brain/Plasma Conc Ratio / Plasma Conc: 20 mg/kg IV
Method: as §4

[15] = male, CD1, mouse, plasma, iv, 1 mg/kg
[16] = brain, IV 20 mg/kg, male CD1 mice
[17] = plasma, IV 20 mg/kg, male CD1 mice

In the case of `COc1cc2c3c(n(CCCN4CCOCC4)c(=O)c2cc1OC)-c1nc2c(cc1C3=O)OCO2` [G101, 2,3-Dimethoxy-6-(3-morpholinopropyl)-5H-[1,3]dioxolo[4″,5″:5′,6′]pyrido[3′,2′:4,5]cyclopenta[1,2-c]isoquinoline-5,12(6H)-dione], the “growth inhibition (% viability)” value [1] is reported as “did not show growth inhibition” and the “growth inhibition (% viability)” value [2] is reported as “did not show growth inhibition”.

For `COc1cc2c3c(n(CCCNCCO)c(=O)c2cc1OC)-c1nc2c(cc1C3=O)OCO2` [G105, 6-(3-((2-Hydroxyethyl)amino)propyl)-2,3-dimethoxy-5H-[1,3]dioxolo[4″,5″:5′,6′]pyrido[3′,2′:4,5]cyclopenta[1,2-c]isoquinoline-5,12(6H)-dione], the “potency on tumor size” value [3] was “most potent”, the “toxicity estimated from decrease in animal weight” value ([4]; 20 mg/kg IV) was “most toxic” and the “reduction of tumor volume” value ([4]; IV days 1-5 and 11-15, G105 20 mg/kg, G104 15 and 30 mg/kg) was “most potent”. For the same molecule, the “% Stability at 6 hrs” value [5] was 97.59%, the AUCInf ([6]; male, CD1, mouse) was 2949 ng·h/mL and the AUClast ([6]; male, CD1, mouse) was 2847 ng·h/mL. For the same molecule, the C0 ([6]; male, CD1, mouse) was 3904 ng/mL, the Cl_obs ([6]; male, CD1, mouse) was 113 mL/min/kg and the “MRTInf—obs” value ([6]; male, CD1, mouse) was 4.12 h. For the same molecule, the T1/2 ([6]; male, CD1, mouse) was 6.18 h, the “Brain/Plasma Conc Ratio” value ([6]; male, CD1, mouse, 0.25 h) was 0.42 and the “Brain/Plasma Conc Ratio” value ([6]; male, CD1, mouse, 0.5 h) was 0.44. The “Brain/Plasma Conc Ratio” value ([6]; male, CD1, mouse, 1 h) was 0.73, the “Brain/Plasma Conc Ratio” value ([6]; male, CD1, mouse, 2 h) was 1.45 and the “Brain/Plasma Conc Ratio” value ([6]; male, CD1, mouse, 4 h) was 2.71. For the same molecule, the “Brain/Plasma Conc Ratio” value ([6]; male, CD1, mouse, 8 h) was 10.2, the AUClast ([6]; mouse) was 9698 ng·h/g and the AUCInf ([7]; IV 1 mg/kg, male CD1 mice) was 155 ng·h/mL. For the same molecule, the AUClast ([7]; IV 1 mg/kg, male CD1 mice) was 151 ng·h/mL, the AUClast/D ([7]; IV 1 mg/kg, male CD1 mice) was 151 ng·h/mL and the “AUC—% Extrap—obs” value ([7]; IV 1 mg/kg, male CD1 mice) was 2.61%. For the same molecule, the C0 ([7]; IV 1 mg/kg, male CD1 mice) was 177 ng/mL, the Cl_obs ([7]; IV 1 mg/kg, male CD1 mice) was 107 mL/min/kg and the “MRTInf—obs” value ([7]; IV 1 mg/kg, male CD1 mice) was 1.49 h. For the same molecule, the T1/2 ([7]; IV 1 mg/kg, male CD1 mice) was 1.84 h, the AUCInf ([7]; PO 10 mg/kg, male CD1 mice) was 28.8 ng·h/mL and the AUClast ([7]; PO 10 mg/kg, male CD1 mice) was 18.0 ng·h/mL. The AUClast/D ([7]; PO 10 mg/kg, male CD1 mice) was 1.80 ng·h/mL, the “AUC—% Extrap—obs” value ([7]; PO 10 mg/kg, male CD1 mice) was 37.3% and the Cmax ([7]; PO 10 mg/kg, male CD1 mice) was 3.50 ng/mL. For the same molecule, the “F (fraction of the dose absorbed)” value ([7]; PO 10 mg/kg, male CD1 mice) was 1.19%, the “MRTInf—obs” value ([7]; PO 10 mg/kg, male CD1 mice) was 7.86 h and the T1/2 ([7]; PO 10 mg/kg, male CD1 mice) was 5.20 h. The Tmax ([7]; PO 10 mg/kg, male CD1 mice) was 0.500 h, the Vd [7, 15] was 9.62 L/kg and the half-life [7, 15] was 1.84 h. The half-life ([7]; male, CD1, mouse, plasma, po, 10 mg/kg) was 5.2 h.

In the case of `COc1cc2c3c(n(CCCNCCO)c(=O)c2cc1OC)-c1cc2c(cc1C3=O)OCO2` [LMP744], the GI50 [8] is given as 100 nM, the GI50 [9] is given as 40 nM and the GI50 [10] is given as 30 nM. For the same molecule, the GI50 [11] was 350 nM, the GI50 [12] was 790 nM and the GI50 [13] was 110 nM. The “Brain Conc” value ([14]; 0.25 h) was 941 ± 158 nM, the “Brain/Plasma Conc Ratio” value ([14]; 0.25 h) was 0.65 and the “Plasma Conc” value ([14]; 0.25 h) was 1434 ± 123 nM. For the same molecule, the “Brain Conc” value ([14]; 0.5 h) was 582 ± 380 nM, the “Brain/Plasma Conc Ratio” value ([14]; 0.5 h) was 0.34 and the “Plasma Conc” value ([14]; 0.5 h) was 1712 ± 945 nM. The “Brain Conc” value ([14]; 1 h) was 802 ± 122 nM, the “Brain/Plasma Conc Ratio” value ([14]; 1 h) was 0.90 and the “Plasma Conc” value ([14]; 1 h) was 894 ± 194 nM. For the same molecule, the “Brain Conc” value ([14]; 2 h) was 743 ± 136 nM, the “Brain/Plasma Conc Ratio” value ([14]; 2 h) was 1.39 and the “Plasma Conc” value ([14]; 2 h) was 535 ± 103 nM. For the same molecule, the “Brain Conc” value ([14]; 4 h) was 857 ± 162 nM, the “Brain/Plasma Conc Ratio” value ([14]; 4 h) was 5.44 and the “Plasma Conc” value ([14]; 4 h) was 154 ± 14 nM. For the same molecule, the “Brain Conc” value ([14]; 8 h) was 759 ± 188 nM, the “Plasma Conc” value ([14]; 8 h) was 86 ± 31 nM and the “Brain Conc” value ([14]; 24 h) was 524 ± 166 nM. For the same molecule, the “Brain/Plasma Conc Ratio” value ([14]; 24 h) was 27.1, the “Plasma Conc” value ([14]; 24 h) was 23 ± 5 nM and the AUClast [14, 16] was 7606 ng·h/g. For the same molecule, the “AUC—% Extrap—obs” value [14, 16] was 72%, the Cmax [14, 16] was 413 ng/g and the Tmax [14, 16] was 0.25 h. The AUCInf [14, 17] was 2132 ng·h/mL, the AUClast [14, 17] was 2022 ng·h/mL and the “AUC—% Extrap—obs” value [14, 17] was 5.16%. The C0 [14, 17] was 1943 ng/mL, the Cl_obs [14, 17] was 156 mL/min/kg and the “MRTInf—obs” value [14, 17] was 5.14 h. For the same molecule, the T1/2 [14, 17] was 7.48 h and the “Vss—obs” value [14, 17] was 48.2 L/kg.
